Source: the NIST ThermoML archive (doi:10.1016/j.jct.2014.06.012)
Several values for one entry are separate records, joined by “and”; a condition that tells them apart may be missing. Identical values can stand only once. ± gives the expanded uncertainty stated by the source.

Test: molar heat capacity at constant pressure
Conditions: 101.33 kPa, Crystal 1

O=P([O-])([O-])[O-].[Cs+].[Mn+2] [cesium manganese(II) phosphate]
molar heat capacity at constant pressure
Conditions | Small sample (50 mg) DSC | Vacuum adiabatic calorimetry
240.73 K | – | 124.88 ± 0.75 J/K/mol
243.23 K | – | 125.55 ± 0.75 J/K/mol
245.29 K | – | 126.13 ± 0.83 J/K/mol
247.36 K | – | 126.8 ± 0.83 J/K/mol
250 K | – | 126.96 ± 0.83 J/K/mol
250.13 K | – | 127.46 ± 0.83 J/K/mol
252.55 K | – | 128.04 ± 0.83 J/K/mol
255.37 K | – | 128.79 ± 0.83 J/K/mol
258.11 K | – | 129.46 ± 0.83 J/K/mol
260 K | – | 129.62 ± 0.83 J/K/mol
260.99 K | – | 130.29 ± 0.83 J/K/mol
263.88 K | – | 131.12 ± 0.83 J/K/mol
266.76 K | – | 131.87 ± 0.83 J/K/mol
269.64 K | – | 132.62 ± 0.83 J/K/mol
270 K | – | 132.37 ± 0.83 J/K/mol
272.52 K | – | 133.45 ± 0.83 J/K/mol
275.39 K | – | 134.28 ± 0.83 J/K/mol
278.26 K | – | 135.19 ± 0.83 J/K/mol
280 K | – | 135.11 ± 0.83 J/K/mol
281.34 K | – | 136.02 ± 0.83 J/K/mol
283.99 K | – | 136.77 ± 0.83 J/K/mol
286.86 K | – | 137.69 ± 0.83 J/K/mol
289.06 K | – | 138.1 ± 0.83 J/K/mol
290 K | – | 138.02 ± 0.83 J/K/mol
291.64 K | – | 139.02 ± 0.83 J/K/mol
295.04 K | – | 140.18 ± 0.91 J/K/mol
297.8 K | – | 141.01 ± 0.91 J/K/mol
298.15 K | – | 140.43 ± 0.91 J/K/mol
300 K | – | 141.01 ± 0.91 J/K/mol
300.2 K | – | 141.76 ± 0.91 J/K/mol
302.7 K | – | 142.51 ± 0.91 J/K/mol
305.33 K | – | 143.34 ± 0.91 J/K/mol
308.4 K | – | 144.17 ± 0.91 J/K/mol
310 K | – | 144.17 ± 0.91 J/K/mol
310.94 K | – | 144.92 ± 0.91 J/K/mol
314 K | – | 145.92 ± 0.91 J/K/mol
317.6 K | – | 147 ± 0.91 J/K/mol
320 K | – | 147.58 ± 0.91 J/K/mol
320.46 K | – | 147.91 ± 0.91 J/K/mol
323.3 K | – | 148.91 ± 0.91 J/K/mol
326.66 K | – | 150.08 ± 0.91 J/K/mol
329.3 K | – | 150.91 ± 0.91 J/K/mol
330 K | – | 151.16 ± 0.91 J/K/mol
330.7 K | 151.32 ± 7.5 J/K/mol | –
331.64 K | – | 151.57 ± 0.91 J/K/mol
332.7 K | 152.15 ± 8.3 J/K/mol | –
333.9 K | 152.15 ± 8.3 J/K/mol | –
335.3 K | – | 152.49 ± 0.91 J/K/mol
337 K | 152.99 ± 8.3 J/K/mol | –
338.7 K | – | 153.4 ± 0.91 J/K/mol
340 K | 153.82 ± 8.3 J/K/mol | 154.9 ± 1 J/K/mol
341.6 K | 153.82 ± 8.3 J/K/mol | –
343.13 K | – | 154.65 ± 1 J/K/mol
345 K | 155.48 ± 8.3 J/K/mol | –
347.5 K | 155.48 ± 8.3 J/K/mol | –
350 K | 156.31 ± 8.3 J/K/mol | –
352.5 K | 157.14 ± 8.3 J/K/mol | –
355 K | 157.14 ± 8.3 J/K/mol | –
357.7 K | 157.97 ± 8.3 J/K/mol | –
360 K | 158.81 ± 8.3 J/K/mol | –
360.2 K | 157.97 ± 8.3 J/K/mol | –
362.5 K | 158.81 ± 8.3 J/K/mol | –
364.9 K | 158.81 ± 8.3 J/K/mol | –
367.5 K | 159.64 ± 8.3 J/K/mol | –
370 K | 160.47 ± 8.3 J/K/mol | –
372.5 K | 160.47 ± 8.3 J/K/mol | –
374.8 K | 161.3 ± 8.3 J/K/mol | –
377.3 K | 161.3 ± 8.3 J/K/mol | –
380 K | 162.13 ± 8.3 J/K/mol | –
382.2 K | 162.13 ± 8.3 J/K/mol | –
385 K | 162.96 ± 8.3 J/K/mol | –
387.5 K | 162.96 ± 8.3 J/K/mol | –
390 K | 163.8 ± 8.3 J/K/mol | –
392.5 K | 163.8 ± 8.3 J/K/mol | –
395 K | 164.63 ± 8.3 J/K/mol | –
397.5 K | 164.63 ± 8.3 J/K/mol | –
400 K | 164.63 ± 8.3 J/K/mol | –
400.3 K | 165.46 ± 8.3 J/K/mol | –
402.8 K | 165.46 ± 8.3 J/K/mol | –
405.3 K | 166.29 ± 8.3 J/K/mol | –
407.5 K | 166.29 ± 8.3 J/K/mol | –
409.5 K | 166.29 ± 8.3 J/K/mol | –
410 K | 166.29 ± 8.3 J/K/mol | –
412.6 K | 166.29 ± 8.3 J/K/mol | –
415 K | 167.12 ± 8.3 J/K/mol | –
417.5 K | 167.12 ± 8.3 J/K/mol | –
420 K | 167.12 ± 8.3 J/K/mol | –
422.5 K | 167.12 ± 8.3 J/K/mol | –
425 K | 167.95 ± 9.1 J/K/mol | –
427.5 K | 167.95 ± 9.1 J/K/mol | –
430 K | 167.95 ± 9.1 J/K/mol | –
432.5 K | 167.95 ± 9.1 J/K/mol | –
435 K | 168.78 ± 9.1 J/K/mol | –
437.5 K | 168.78 ± 9.1 J/K/mol | –
440 K | 169.62 ± 9.1 J/K/mol and 168.78 ± 9.1 J/K/mol | –
442.5 K | 169.62 ± 9.1 J/K/mol | –
445 K | 169.62 ± 9.1 J/K/mol | –
447.5 K | 169.62 ± 9.1 J/K/mol | –
450 K | 170.45 ± 9.1 J/K/mol | –
452.5 K | 170.45 ± 9.1 J/K/mol | –
455 K | 170.45 ± 9.1 J/K/mol | –
457.5 K | 170.45 ± 9.1 J/K/mol | –
460 K | 171.28 ± 9.1 J/K/mol | –
462.5 K | 171.28 ± 9.1 J/K/mol | –
465 K | 171.28 ± 9.1 J/K/mol | –
467.5 K | 171.28 ± 9.1 J/K/mol | –
469.9 K | 172.11 ± 9.1 J/K/mol | –
470 K | 172.11 ± 9.1 J/K/mol | –
472.5 K | 172.11 ± 9.1 J/K/mol | –
475 K | 172.11 ± 9.1 J/K/mol | –
477.5 K | 172.11 ± 9.1 J/K/mol | –
480 K | 172.94 ± 9.1 J/K/mol | –
482.5 K | 172.94 ± 9.1 J/K/mol | –
485 K | 172.94 ± 9.1 J/K/mol | –
487.5 K | 172.94 ± 9.1 J/K/mol | –
490 K | 173.77 ± 9.1 J/K/mol | –
492.5 K | 173.77 ± 9.1 J/K/mol | –
495 K | 173.77 ± 9.1 J/K/mol | –
497.5 K | 174.6 ± 9.1 J/K/mol | –
500 K | 174.6 ± 9.1 J/K/mol | –
502.5 K | 174.6 ± 9.1 J/K/mol | –
505.3 K | 174.6 ± 9.1 J/K/mol | –
507.5 K | 175.44 ± 9.1 J/K/mol | –
510 K | 175.44 ± 9.1 J/K/mol | –
512.5 K | 175.44 ± 9.1 J/K/mol | –
515 K | 175.44 ± 9.1 J/K/mol | –
517.5 K | 176.27 ± 9.1 J/K/mol | –
520 K | 176.27 ± 9.1 J/K/mol | –
522.5 K | 176.27 ± 9.1 J/K/mol | –
525 K | 176.27 ± 9.1 J/K/mol | –
527.5 K | 177.1 ± 9.1 J/K/mol | –
530 K | 177.1 ± 9.1 J/K/mol | –
532.5 K | 177.1 ± 9.1 J/K/mol | –
535 K | 177.1 ± 9.1 J/K/mol | –
537.5 K | 177.93 ± 9.1 J/K/mol | –
540 K | 177.93 ± 9.1 J/K/mol | –
542.5 K | 177.93 ± 9.1 J/K/mol | –
545 K | 177.93 ± 9.1 J/K/mol | –
547.5 K | 178.76 ± 9.1 J/K/mol | –
550 K | 178.76 ± 9.1 J/K/mol | –
552.5 K | 178.76 ± 9.1 J/K/mol | –
555 K | 178.76 ± 9.1 J/K/mol | –
557.5 K | 179.59 ± 9.1 J/K/mol | –
560 K | 179.59 ± 9.1 J/K/mol | –
562.5 K | 179.59 ± 9.1 J/K/mol | –
565 K | 179.59 ± 9.1 J/K/mol | –
567.5 K | 180.42 ± 9.1 J/K/mol | –
570 K | 180.42 ± 9.1 J/K/mol | –
572.5 K | 180.42 ± 9.1 J/K/mol | –
575 K | 180.42 ± 9.1 J/K/mol | –
577.5 K | 181.26 ± 9.1 J/K/mol | –
580 K | 181.26 ± 9.1 J/K/mol | –
582.5 K | 181.26 ± 9.1 J/K/mol | –
585 K | 181.26 ± 9.1 J/K/mol | –
587.5 K | 182.09 ± 9.1 J/K/mol | –
590 K | 182.09 ± 9.1 J/K/mol | –
592.5 K | 182.09 ± 9.1 J/K/mol | –
595 K | 182.09 ± 9.1 J/K/mol | –
597.5 K | 182.92 ± 9.1 J/K/mol | –
600 K | 182.92 ± 9.1 J/K/mol | –
602.5 K | 182.92 ± 9.1 J/K/mol | –
605 K | 183.75 ± 9.1 J/K/mol | –
607.5 K | 183.75 ± 9.1 J/K/mol | –
610 K | 183.75 ± 9.1 J/K/mol | –
612.5 K | 183.75 ± 9.1 J/K/mol | –
615 K | 184.58 ± 10 J/K/mol | –
617.5 K | 184.58 ± 10 J/K/mol | –
620 K | 184.58 ± 10 J/K/mol | –
622.4 K | 184.58 ± 10 J/K/mol | –
625 K | 185.41 ± 10 J/K/mol | –
627.5 K | 185.41 ± 10 J/K/mol | –
630 K | 185.41 ± 10 J/K/mol | –
632.5 K | 186.24 ± 10 J/K/mol | –
635 K | 186.24 ± 10 J/K/mol | –
637.5 K | 186.24 ± 10 J/K/mol | –
640 K | 186.24 ± 10 J/K/mol | –
642.5 K | 186.24 ± 10 J/K/mol | –
645.1 K | 187.08 ± 10 J/K/mol | –
647.5 K | 187.08 ± 10 J/K/mol | –
650 K | 187.08 ± 10 J/K/mol | –
